Blank lines part the entries; values can stand above or below the compound they belong to. Active and inactive are the calls of the source.
How the values were obtained:
[1] = biological target: Voltage-gated inwardly rectifying potassium channel KCNH2 (Homo sapiens, UniProt Q12809); details: Potency;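 note: confirmatory quantitative high-throughput screen measuring inhibition of hERG channel activity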
Trypsin = Trypsin (Sus scrofa, UniProt P00761); test: porcine trypsin inhibitors, dose response, selectivity assay for Rce1 protease inhibitor project, biochemical, quenched peptide fluorescence, cherry-pick (AID 488789)
Chain of Trypsin (P00761 whole entry): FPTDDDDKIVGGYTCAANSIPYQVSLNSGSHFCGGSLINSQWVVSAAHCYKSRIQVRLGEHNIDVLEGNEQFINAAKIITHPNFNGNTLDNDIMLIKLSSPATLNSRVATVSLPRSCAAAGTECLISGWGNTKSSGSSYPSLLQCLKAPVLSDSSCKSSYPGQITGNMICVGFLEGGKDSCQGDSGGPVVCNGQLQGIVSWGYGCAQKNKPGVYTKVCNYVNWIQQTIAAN

CAAX prenyl protease 2 = CAAX prenyl protease 2 (Homo sapiens, UniProt Q9Y256); test: human Rce1 protease inhibitors, dose response, biochemical, yeast membranes, quenched-peptide fluorescence, cherry-pick (AID 588849)
Chain of CAAX prenyl protease 2 (Q9Y256 whole entry): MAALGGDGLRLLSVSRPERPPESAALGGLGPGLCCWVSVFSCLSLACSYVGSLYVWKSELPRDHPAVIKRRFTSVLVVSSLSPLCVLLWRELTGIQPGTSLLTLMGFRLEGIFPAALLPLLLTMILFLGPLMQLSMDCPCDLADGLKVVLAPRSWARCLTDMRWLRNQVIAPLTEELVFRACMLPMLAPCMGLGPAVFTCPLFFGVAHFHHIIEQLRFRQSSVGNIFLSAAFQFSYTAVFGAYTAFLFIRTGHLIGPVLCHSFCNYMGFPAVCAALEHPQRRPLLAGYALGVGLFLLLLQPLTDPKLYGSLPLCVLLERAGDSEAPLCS

[2] = Luminescence Cell-Based/Microorganism Confirmation at Dose of Inhibitors of Trypanosoma cruzi Infection. [Related pubchem assays: 1885, 1968 ]; type: functional
[3] = Luminescence Cell-Based Secondary HTS screen to identify cytotoxic compounds of NIH3T3 cells. [Related pubchem assays: 1885, 1968 ]; type: functional
[4] = inhibitors of Trypanosoma cruzi host-cell infection, confirmation, beta-gal luminescence, NIH3T3 host cells (AID 2630); type: functional, cell-based; details: Mus musculus
Galanin receptor type 2 = Galanin receptor type 2 (Homo sapiens, UniProt O43603); test: Dose Response cell-based high-throughput screening assay to identify antagonists of galanin receptor 2 (GALR2). [Related pubchem assays: 828, 866 ]; type: functional
Chain of Galanin receptor type 2 (O43603 whole entry): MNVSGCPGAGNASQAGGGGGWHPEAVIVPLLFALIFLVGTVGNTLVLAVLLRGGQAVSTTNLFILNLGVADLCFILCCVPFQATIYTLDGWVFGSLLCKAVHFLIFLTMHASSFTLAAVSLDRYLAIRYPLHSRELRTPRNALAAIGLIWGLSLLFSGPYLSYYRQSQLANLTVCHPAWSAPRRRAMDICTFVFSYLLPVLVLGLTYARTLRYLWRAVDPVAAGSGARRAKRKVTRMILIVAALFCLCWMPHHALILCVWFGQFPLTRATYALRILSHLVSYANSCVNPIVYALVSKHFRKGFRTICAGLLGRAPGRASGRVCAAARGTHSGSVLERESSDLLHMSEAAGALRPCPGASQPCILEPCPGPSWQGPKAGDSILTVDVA

Jurkat = test: antigen receptor-induced NF-kB inhibitors, dose response, Jurkat, luciferase reporter, luminescence, B- and T-cell (AID 489004); type: functional, cell-based; details: Homo sapiens;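 note: NF-kB luciferase reporter Jurkat cells stimulated with PMA plus ionomycin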
[5] = cytotoxicity in HEK-293T NF-kB-Luc cells, dose response, cytotoxicity control for B/T-cell NF-kB inhibitor project, cell-based, uHTS hits (AID 489019); type: functional;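 note: IC50 reflects cytotoxicity as loss of cell viability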
Galanin receptor type 3 = Galanin receptor type 3 (Homo sapiens, UniProt O60755); test: Fluorescence-based cell-based primary high throughput dose response assay to identify antagonists of the Galanin Receptor 3 (GalR3).; type: functional
Chain of Galanin receptor type 3 (O60755 whole entry): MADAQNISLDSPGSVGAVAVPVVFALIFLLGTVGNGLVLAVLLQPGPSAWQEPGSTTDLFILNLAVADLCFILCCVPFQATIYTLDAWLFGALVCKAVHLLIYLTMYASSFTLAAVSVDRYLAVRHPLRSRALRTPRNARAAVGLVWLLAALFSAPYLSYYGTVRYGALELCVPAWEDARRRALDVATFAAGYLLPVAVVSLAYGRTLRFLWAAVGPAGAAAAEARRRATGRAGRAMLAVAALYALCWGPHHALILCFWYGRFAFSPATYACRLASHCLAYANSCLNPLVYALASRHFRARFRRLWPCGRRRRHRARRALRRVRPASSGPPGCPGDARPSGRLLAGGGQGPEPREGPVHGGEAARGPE

cells = type: functional, cell-based; details: HEK-CNG
[6] = biological target: T1, COUP transcription factor 2 (Homo sapiens, UniProt P24468); test: Luminescence-based cell-based high throughput dose response assay to identify inhibitors of COUP-TFII (NR2F2).; type: functional;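 note: HEK293 cells transiently cotransfected with COUP-TFII expression vector and reporter; luciferase reporter luminescence driven by COUP-TFII from the pX2-168 reporter plasmid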
T1 sequence (P24468 whole entry): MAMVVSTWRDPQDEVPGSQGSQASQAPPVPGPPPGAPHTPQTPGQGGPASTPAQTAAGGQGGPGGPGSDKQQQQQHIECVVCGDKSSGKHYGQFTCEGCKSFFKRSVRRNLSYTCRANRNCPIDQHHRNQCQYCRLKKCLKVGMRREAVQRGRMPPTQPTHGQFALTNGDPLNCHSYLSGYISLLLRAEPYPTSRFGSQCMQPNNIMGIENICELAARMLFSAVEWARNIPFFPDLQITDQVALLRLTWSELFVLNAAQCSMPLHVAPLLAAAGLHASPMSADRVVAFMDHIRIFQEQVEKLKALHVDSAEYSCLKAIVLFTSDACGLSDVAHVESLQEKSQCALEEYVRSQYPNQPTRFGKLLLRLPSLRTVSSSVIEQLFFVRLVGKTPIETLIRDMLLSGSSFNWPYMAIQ

Beta-arrestin-1 = Beta-arrestin-1 (Homo sapiens, UniProt P49407); test: inhibitors of arrestin peptide binding to AP2, dose response, biochemical, cherry pick 1, beta2-adaptin appendage, flow cytometry (AID 588783); type: functional
Chain of Beta-arrestin-1 (P49407 whole entry): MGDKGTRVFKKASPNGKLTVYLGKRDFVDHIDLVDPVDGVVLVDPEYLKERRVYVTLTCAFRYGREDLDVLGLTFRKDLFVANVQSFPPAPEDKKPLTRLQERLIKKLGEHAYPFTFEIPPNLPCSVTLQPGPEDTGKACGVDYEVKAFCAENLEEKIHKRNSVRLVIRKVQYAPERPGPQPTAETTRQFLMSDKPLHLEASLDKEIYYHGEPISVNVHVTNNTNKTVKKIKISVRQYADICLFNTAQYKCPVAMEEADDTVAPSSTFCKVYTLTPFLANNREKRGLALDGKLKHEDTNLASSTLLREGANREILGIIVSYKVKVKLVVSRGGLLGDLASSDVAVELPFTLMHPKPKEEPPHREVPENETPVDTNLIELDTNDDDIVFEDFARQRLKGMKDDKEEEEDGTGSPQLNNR

Chain of Voltage-gated inwardly rectifying potassium channel KCNH2 (Q12809 whole entry): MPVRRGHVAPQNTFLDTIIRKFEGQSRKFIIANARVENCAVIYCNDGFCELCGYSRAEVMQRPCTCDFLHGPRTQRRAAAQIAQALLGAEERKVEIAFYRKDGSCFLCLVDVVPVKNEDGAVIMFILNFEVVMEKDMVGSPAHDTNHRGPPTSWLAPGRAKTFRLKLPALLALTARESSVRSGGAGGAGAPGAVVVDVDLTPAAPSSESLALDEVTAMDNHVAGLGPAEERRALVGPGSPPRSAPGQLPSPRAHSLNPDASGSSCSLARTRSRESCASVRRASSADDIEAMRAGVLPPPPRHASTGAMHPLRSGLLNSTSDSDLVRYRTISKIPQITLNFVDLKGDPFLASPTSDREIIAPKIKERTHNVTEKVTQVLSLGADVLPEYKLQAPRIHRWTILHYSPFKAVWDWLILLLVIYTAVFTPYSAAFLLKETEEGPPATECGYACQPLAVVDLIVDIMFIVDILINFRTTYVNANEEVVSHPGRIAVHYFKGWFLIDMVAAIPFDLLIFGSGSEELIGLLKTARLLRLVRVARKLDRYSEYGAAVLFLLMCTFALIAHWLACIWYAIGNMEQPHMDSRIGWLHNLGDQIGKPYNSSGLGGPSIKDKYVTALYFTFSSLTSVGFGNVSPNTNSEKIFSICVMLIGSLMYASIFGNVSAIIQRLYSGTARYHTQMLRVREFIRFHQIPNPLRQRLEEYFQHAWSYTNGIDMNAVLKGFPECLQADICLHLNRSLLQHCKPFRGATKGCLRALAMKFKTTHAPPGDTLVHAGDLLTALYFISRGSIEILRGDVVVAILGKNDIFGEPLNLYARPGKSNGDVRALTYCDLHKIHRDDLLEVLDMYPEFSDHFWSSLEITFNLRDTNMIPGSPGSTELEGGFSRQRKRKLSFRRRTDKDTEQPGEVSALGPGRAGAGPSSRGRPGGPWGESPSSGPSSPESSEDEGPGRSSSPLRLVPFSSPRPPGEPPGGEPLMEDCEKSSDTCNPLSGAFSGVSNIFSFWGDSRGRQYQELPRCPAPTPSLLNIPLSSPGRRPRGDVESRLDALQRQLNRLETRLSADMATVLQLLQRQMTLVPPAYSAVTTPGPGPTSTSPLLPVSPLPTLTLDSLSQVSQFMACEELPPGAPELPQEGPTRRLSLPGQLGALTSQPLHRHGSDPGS

SMILES: CCCN(CCC)C1Cc2cc(OC)c(OC)cc2C1
- AC50 [1]: 14.1 µM (inconclusive)

- AC50 (Trypsin): 11.6 µM (active)
- AC50 (CAAX prenyl protease 2): 13.2 µM (active)
SMILES: COc1ccc(/C=C\c2cc(OC)c(OC)cc2CC[N+](C)(C)C)cc1OC

SMILES: CCc1ccc2nc(N(CCN(C)C)C(=O)c3ccc4ncsc4c3)sc2c1
- EC50 [2]: 0.176 µM (active)
- EC50 [3]: > 195 µM (inconclusive)
- EC50 [4]: 0.176 µM (active)

SMILES: O=C(CSc1nnnn1C1CC2CCC1C2)Nc1ccnc2ccccc12 (stereo not drawn)
- IC50 (Galanin receptor type 2): > 42 µM (not active)
- IC50 (Jurkat): 61.4 µM (inactive)
- IC50 [5]: 45.1 µM (inactive)
- IC50 (Galanin receptor type 3): 0.0869 µM (active)
- EC50 (cells): > 29.9 µM (inactive)
- IC50 [6]: 0.568 µM (active)

- IC50 (Beta-arrestin-1): 3.12 µM (active)
SMILES: CCN1/C(=C/c2ccc3cc(C)ccc3[n+]2C)Sc2ccc3sccc3c21

— ChEMBL document CHEMBL1201862, “PubChem BioAssay data set” (2004)
